Results from patent US20200024278A1, “COMPOSITION COMPRISING ANTIBIOTIC COMPOUND AND AN HETEROCYCLIC COMPOUND AND THEIR USE IN PREVENTING OR TREATING BACTERIAL INFECTIONS” (MUTABILIS, priority 2016, published 2020).
Where two headings read alike, the source gives them in different places.

What was measured:
Assay in all cases: MIC, broth microdilution (CLSI), substance alone or ATB combined with compound at 4 or 8 μg/mL
PAE UFR90 = type: cell-based, P. aeruginosa; settings: Pseudomonas aeruginosa, PAE UFR90
Outline: (§1)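 Antibiotic MICs were determined in presence of fixed compound at 4 or 8 μg/mL, and compound MICs alone, by visual growth inhibition. Inoculum 5·10^5 CFU/mL in ca-MHB, incubated 35 °C for 16-20 h per CLSI-M7-A7. Glucose-6-phosphate (25 μg/ml) added when fosfomycin was tested.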

PAE 105250 = type: cell-based, P. aeruginosa; settings: Pseudomonas aeruginosa, PAE 105250
Outline: as §1

PAE UFR48 = type: cell-based, P. aeruginosa; settings: Pseudomonas aeruginosa, PAE UFR48
Outline: as §1

ECL P99 = type: cell-based, E. cloacae; settings: Enterobacter cloacae, ECL P99
Outline: as §1

SAU 29213 = type: cell-based, S. aureus; settings: Staphylococcus aureus
Outline: as §1

ECO UFR39 = type: cell-based, E. coli; settings: Escherichia coli; antibiotic alone; ECO UFR39; read-out: MIC ATB alone
Outline: as §1

ECO 190317 = type: cell-based, E. coli; settings: Escherichia coli; antibiotic alone; ECO 190317; read-out: MIC ATB alone
Outline: as §1

SPN 49619 = type: cell-based, S. pneumoniae; settings: Streptococcus pneumoniae, SPN 49619
Outline: as §1

KPN UFR42 = type: cell-based, K. pneumoniae; settings: Klebsiella pneumoniae; antibiotic alone; KPN UFR42; read-out: MIC ATB alone
Outline: as §1

KPN BAA-1898 = type: cell-based, K. pneumoniae; settings: Klebsiella pneumoniae, BAA1898, KPN BAA-1898
Outline: as §1

KPN 6299 = type: cell-based, K. pneumoniae; settings: Klebsiella pneumoniae, antibiotic alone, read-out: MIC ATB alone
Outline: as §1

ABA 19606 = type: cell-based, A. baumannii
Outline: as §1

ABA UFR159 = type: cell-based, A. baumannii
Outline: as §1

[1] = antibiotic alone, read-out: MIC ATB alone
[2] = Acinetobacter baumannii, antibiotic alone, read-out: MIC ATB alone

CO/N=C(\C(=O)N[C@@H]1C(=O)N2C(C(=O)[O-])=C(C[N+]3(C)CCCC3)CS[C@H]12)c1csc(N)n1 [FEP, Cefepime]
512 µg/mL: MIC (ECO 190317)
0.063 µg/mL: MIC (SPN 49619; [1]) | MIC (SPN 49619; substance alone, read-out: MIC)
2 µg/mL: MIC (ECL P99; [1]) | MIC (ECL P99; substance alone, read-out: MIC)
128 µg/mL: MIC (KPN UFR42) | MIC (KPN 6299)
>128 µg/mL: MIC ATB combined with Example 1 @8 μg/ml (ABA UFR159; with Example 1 @8 μg/ml) | MIC ATB combined with Example 3 @8 μg/ml (ABA UFR159; with Example 3 @8 μg/ml) | MIC ATB combined with Example 6 @8 μg/ml (ABA UFR159; with Example 6 @8 μg/ml) | MIC ATB combined with Example 9 @4 μg/ml (ABA UFR159; with Example 9 @4 μg/ml) | MIC ATB combined with Example 10 @8 μg/ml (ABA UFR159; with Example 10 @8 μg/ml) | MIC ATB combined with Example 11 @8 μg/ml (ABA UFR159; with Example 11 @8 μg/ml) | MIC ATB combined with Example 12 @8 μg/ml (ABA UFR159; with Example 12 @8 μg/ml) | MIC ATB combined with Example 15 @4 μg/ml (ABA UFR159; with Example 15 @4 μg/ml)
<=0.25 μg/mL: MIC ATB combined with Example 6 @8 μg/ml (ABA 19606; with Example 6 @8 μg/ml)
16 µg/mL: MIC (PAE UFR90; [1]) | MIC (PAE UFR90; substance alone, read-out: MIC) | MIC (ABA 19606; [2]) | MIC ATB combined with Example 9 @4 μg/ml (ABA 19606; with Example 9 @4 μg/ml) | MIC ATB combined with Example 11 @8 μg/ml (ABA 19606; with Example 11 @8 μg/ml) | MIC ATB combined with Example 15 @4 μg/ml (ABA 19606; with Example 15 @4 μg/ml)
4 µg/mL: MIC (SAU 29213; antibiotic alone, SAU 29213, read-out: MIC ATB alone) | MIC (SAU 29213; substance alone, SAU 29213 (MSSA 29213), read-out: MIC)
> 128 µg/mL: MIC (ECO UFR39) | MIC (ABA UFR159; [2])
64 µg/mL: MIC (PAE UFR48; [1]) | MIC (PAE UFR48; substance alone, read-out: MIC) | MIC (KPN BAA-1898; [1]) | MIC (KPN BAA-1898; substance alone, read-out: MIC)
8 µg/mL: MIC (PAE 105250; [1]) | MIC (PAE 105250; substance alone, read-out: MIC) | MIC ATB combined with Example 3 @8 μg/ml (ABA 19606; with Example 3 @8 μg/ml) | MIC ATB combined with Example 10 @8 μg/ml (ABA 19606; with Example 10 @8 μg/ml) | MIC ATB combined with Example 12 @8 μg/ml (ABA 19606; with Example 12 @8 μg/ml)
32 µg/mL: MIC ATB combined with Example 1 @8 μg/ml (ABA 19606; with Example 1 @8 μg/ml)
